Laboratory results as given in ChEMBL document CHEMBL1144462, “Spread in an Italian hospital of a clonal Acinetobacter baumannii strain producing the TEM-92 extended-spectrum beta-lactamase” (2007).

Key:
[1] = test system: Acinetobacter baumannii; assay: Antibacterial activity against TEM92 ESBL-producing Acinetobacter baumannii by CLSI method; assay type: functional
[2] = test system: Acinetobacter baumannii; assay: Antibacterial activity against Acinetobacter baumannii by CLSI method; assay type: functional

Compound	MIC [1] [µg/mL]	MIC [2] [µg/mL]
NCC[C@H](O)C(=O)N[C@@H]1C[C@H](N)[C@@H](O[C@H]2O[C@H](CN)[C@@H](O)[C@H](O)[C@H]2O)[C@H](O)[C@H]1O[C@H]1O[C@H](CO)[C@@H](O)[C@H](N)[C@H]1O [AMIKACIN]	≤ 8	–
CO/N=C(\C(=O)N[C@@H]1C(=O)N2C(C(=O)O)=C(COC(C)=O)CS[C@H]12)c1csc(N)n1 [CEFOTAXIME]	> 128	≥ 16
CC(C)(O/N=C(\C(=O)N[C@@H]1C(=O)N2C(C(=O)[O-])=C(C[n+]3ccccc3)CS[C@H]12)c1csc(N)n1)C(=O)O [CEFTAZIDIME]	> 128	≥ 16
CO/N=C(\C(=O)N[C@@H]1C(=O)N2C(C(=O)O)=C(CSc3nc(=O)c(O)nn3C)CS[C@H]12)c1csc(N)n1 [CEFTRIAXONE]	> 128	–
C[C@@H](O)[C@H]1C(=O)N2C(C(=O)O)=C(SCCNC=N)C[C@H]12 [IMIPENEM ANHYDROUS]	≤ 1	≥ 8
C[C@H]1COc2c(N3CCN(C)CC3)c(F)cc3c(=O)c(C(=O)O)cn1c23.C[C@H]1COc2c(N3CCN(C)CC3)c(F)cc3c(=O)c(C(=O)O)cn1c23.O [LEVOFLOXACIN]	> 32	–
C[C@@H](O)[C@H]1C(=O)N2C(C(=O)O)=C(S[C@@H]3CN[C@H](C(=O)N(C)C)C3)[C@H](C)[C@H]12 [MEROPENEM]	≤ 2	–
CCN1CCN(C(=O)N[C@@H](C(=O)N[C@@H]2C(=O)N3[C@@H]2SC(C)(C)[C@@H]3C(=O)O)c2ccccc2)C(=O)C1=O [PIPERACILLIN]	> 128	–
NC[C@H]1O[C@H](O[C@H]2[C@H](O)[C@@H](O[C@H]3O[C@H](CO)[C@@H](O)[C@H](N)[C@H]3O)[C@H](N)C[C@@H]2N)[C@H](N)C[C@@H]1O [TOBRAMYCIN]	> 32	–
GENTAMICIN	> 128	–
